The values below come from PMC11200626, “In Vitro Biological Activities of Hesperidin-Related Compounds with Different Solubility” (Antioxidants, 2024).

The nature of data set [1]: DPPH radical scavenging assay. To be noted: for IC50: 0.2 mM DPPH in ethanol, 37 °C, 30 min, read-out: IC50 representing 50% of DPPH radical scavenging. The protocol: Measurements of DPPH radical scavenging activity were performed based on the method described by Ratha et al. and Blois, with slight modifications. Briefly, DPPH was dissolved in absolute ethanol to 0.2 mM, and 20 μL of the diluted sample was added to 180 μL of the DPPH solution. The reaction was performed at 37 °C for 30 min to stabilize the color, and the absorbance of the reaction solution was measured at 520 nm using a microplate reader (Epoch2, Bio Tek, Winooski, VT, USA). The DPPH radical scavenging activity was calculated using the following formula. Ascorbic acid was used as a positive control. DPPH radical scavenging activity%=A−B/A×100 where A is the absorbance of the reaction solution without a sample, and B is the absorbance of the reaction solution with a sample.
(DPPH is a stable violet radical that fades when it is reduced.)

Data set [2] can be described thus: β-carotene bleaching assay. The conditions noted are these: for IC50: β-carotene/linoleic acid emulsion, 50 °C, 2 h. How it is done:
Measurements of the inhibition activity of β-carotene oxidation were performed using the method described by Wanasundara et al. and Hidalgo et al. with slight modifications. Briefly, a mixture of β-carotene and linoleic acid was prepared by dissolving 0.2 mg of β-carotene in 1 mL of chloroform and mixing this solution with 200 mg of Tween 20 containing 20 mg of linoleic acid. After removing the chloroform from the mixture in a rotary evaporator at 50 °C, 100 mL of deionized water was added to prepare an emulsion. The diluted sample (100 μL) was mixed with 900 μL of the prepared emulsion and the absorbance was measured immediately at 470 nm. Then, after a reaction at 50 °C for 2 h, the absorbance was measured again at 470 nm. Antioxidant activity was evaluated as a percent of oxidation inhibition compared to the untreated group sample. As a positive control, BHT (butylated hydroxytoluene) was used in the experiment. β−Carotene bleaching inhibition activity%=A0−At−(B0−Bt)/A0−At×100 where A0 is the initial absorbance without a sample, At is the final absorbance without a sample, B0 is the initial absorbance with a sample, and Bt is the final absorbance with a sample.

Data set [3] can be described thus: n-octanol–water partition coefficient. In kind it is physicochemical. The conditions noted are these: 500 μM sample, 20 h at 20 °C, HPLC, mean ± SD (n = 3); for logP at 20 h: n-octanol/water, read-out: Log Po/w (n-octanol–water partition coefficient) (converted). How it is done:
The hydrophobic/hydrophilic properties were investigated by measuring octanol–water partition coefficients. Octanol–water partition coefficients of the four hesperidin-related compounds were determined by the method described in the previous study. Briefly, samples (500 μM) were mixed in deionized water with an equal volume of n-octanol, and then the mixture was kept for 20 h at 20 °C in the dark to reach partition equilibrium. The concentration of each sample was determined by HPLC, and the partition coefficient (log P) was calculated as the ratio of the concentration in the n-octanol phase to the concentration in the water phase. Partition coefficient LogP=LogCoctanol/[C]water where [C]n-octanol is the concentration of a compound in the n-octanol phase, and [C]water is the concentration of a compound in the water phase.

Another data set deals with IL-6 in HaCaT cells. Nature of the data set: Cellular IL-6 levels after UV irradiation (ELISA). Type of data set: cell-based, Human. To be noted: UV 10 mJ/cm^2, 24 h, tested concentrations up to 25 μM. How it is done: (§1) Cellular levels of TNF-α and IL-6 were measured in HaCaT cells after the addition of various concentrations of HTL, HT, HD, and HDG under UV irradiation. The cell culture and sample treatment conditions for the TNF-α and IL-6 assay were the same as those used in the NO assay. The TNF-α and IL-6 contents in the media were measured, respectively, using commercial detection kits according to the manufacturer’s protocols. The absorbance was measured at 450 nm in the same microplate reader as above.
Background: An ELISA detects its analyte on a solid surface through an enzyme-linked reagent.

The nature of data set [4]: Water solubility (in words). In kind it is physicochemical.
In another data set the test system is Candida albicans. In words: MIC, broth micro-dilution with resazurin. In kind it is cell-based, Candida albicans (KCCM 50235). To be noted: read-out: MIC Value. How it is done:
(§2) Antimicrobial capacity was evaluated against some bacteria and yeast known to be major skin resident microorganisms. Staphylococcus aureus (KCCM 11335) was cultivated on TS agar, and Cutibacterium acnes (KCTC 25526) was cultivated on RCM agar in an anaerobic jar (Rec. Jar, Mitsubishi Gas Chemical Co., Tokyo, Japan) with anaerobic gas packs. Candida albicans (KCCM 50235) was cultivated on YM agar, and Malassezia furfur (KCTC 7545) was cultivated on MLN agar. All the microbes were cultivated at 35 °C.
(§3) For the determination of MIC, S. aureus was cultivated in TS broth, and C. acnes was cultivated in RCM medium in an anaerobic jar with gentle shaking. C. albicans was cultivated in an RPMI-1640 medium supplemented with L-glutamine, and M. furfur was cultivated in an RPMI medium supplemented with 2% oleic acid, 0.5% glycerol, 0.5% Tween 60, and 0.2% sodium bicarbonate. All the microbes were cultivated at 35 °C, and the inoculum size for MICs was 5 × 10^5 cells/mL for S. aureus, and 1.5 × 10^5 cells/mL for C. acnes, C. albicans, and M. furfur, respectively.
MIC values were determined by the broth micro-dilution method with some modifications. Briefly, the culture broth of each microorganism was diluted with the same medium. Two-fold serial dilutions of HTL, HT, HD, and HDG ranging from 4000 to 62.5 μg/mL (depending on the microorganism tested) were performed in 96 well plates. After incubation for sufficient growth, the resazurin solution (1 mg/mL, 10 µL) was added to each well and the plate was incubated for 2 h. The MIC value for a microorganism was determined as the lowest concentration of the tested compound that prevented the color change of resazurin (blue to pink).
In general terms: Broth dilution looks for growth in wells or tubes with falling amounts of substance.

Another data set concerns TNF-α in HaCaT cells. In words: Cellular TNF-α levels after UV irradiation (ELISA). The conditions noted are these: UV 10 mJ/cm^2, 24 h, tested concentrations up to 25 μM. Type of data set: cell-based, Human. How it is done:
as §1

The test system of data set [5] is nitric oxide (NO) in HaCaT cells. Nature of the data set: Cellular NO levels after UV irradiation. In kind it is cell-based. The conditions noted are these: UV 10 mJ/cm^2, 24 h; for NO levels (in words): tested up to 50 μM; for NO production (in words): at 25 μM. How it is done: Cellular NO levels were determined as an inflammatory intermediate in HaCaT cells. […] Then, cells with or without samples were irradiate with 10 mJ/cm^2 of UV rays at 302 nm using a UV irradiator (UV Crosslinker CL-1000M, UVP, Upland, CA, USA). […] After 24 h incubation, the NO content in the media was measured using an NO assay kit according to the manufacturer’s experimental protocol. The absorbance was measured at 540 nm in the same microplate reader as above.

The next data set relates to HaCaT cells. In words: MTT cell viability / cytotoxicity assay. To be noted: 24 h, tested 12.5–200 μM. The protocol:
The keratinocyte HaCaT cell line was obtained from AddexBio (SanDiego, CA, USA). The cells were maintained in DMEM supplemented with 10% FBS and 1% of penicillin/streptomycin under a humidified atmosphere condition of 5% CO2 at 37 °C. The cytotoxicity of HD and the related compounds was assessed by MTT assay. Cells were seeded in 96-well plates at a density of 2 × 10^4 cells/well and incubated for 24 h at 37 °C. Each sample of HTL, HT, HD, and HDG was dissolved in DMSO as a stock solution (0.1 M). […] After incubation for 24 h, the culture medium was removed and MTT solution (100 μL) was added to the well. The mixture was kept at 37 °C for 2 h, then DMSO was added to the reaction mixture and the absorbance at 540 nm was measured in a microplate reader (Epoch2, Bio Tek, Winooski, VT, USA). Cell viability was calculated as a percentage of difference in absorbance between control and test samples.

The test system of another data set is Cutibacterium acnes. Nature of the data set: MIC, broth micro-dilution with resazurin. Type of data set: cell-based, Cutibacterium acnes (KCTC 25526). The conditions noted are these: RCM medium, anaerobic, 35 °C, tested up to 4000 μg/mL. The protocol:
as §2, §3
(§4) MIC values were determined by the broth micro-dilution method with some modifications. Briefly, the culture broth of each microorganism was diluted with the same medium. […] The MIC value for a microorganism was determined as the lowest concentration of the tested compound that prevented the color change of resazurin (blue to pink).

The test system of a further data set is Staphylococcus aureus. In words: MIC, broth micro-dilution with resazurin. Type of data set: cell-based, Staphylococcus aureus (KCCM 11335). To be noted: TS broth, 35 °C, tested up to 4000 μg/mL. How it is done: as §2, §3, §4
The subject of the next data set is Malassezia furfur. In words: MIC, broth micro-dilution with resazurin. Type of data set: cell-based, Malassezia furfur (KCTC 7545). The conditions noted are these: supplemented RPMI, 35 °C, tested up to 4000 μg/mL. How it is done: as §2, §3, §4
The mark [6] stands for this setting: RPMI-1640, 35 °C, tested up to 4000 μg/mL.

Converted amounts (≈) assume the structure as drawn. Like-named read-outs stand apart in the source and are kept apart here.

Consider `O=C1O[C@H]([C@@H](O)CO)C(O)=C1O` [Ascorbic acid, reference compound], for which the “DPPH radical scavenging activity” value in data set [1] (at a concentration of 50 μM, positive control) is 48.74%.
`Cc1cc(C(C)(C)C)c(O)c(C(C)(C)C)c1` [BHT, butylated hydroxytoluene, reference compound]: the “β-carotene bleaching inhibitory activity” value in data set [2] (at a concentration of 25 μM, positive control) is 47.08%.
The term IC50 denotes the midpoint of a concentration-inhibition curve. As usually defined, the MIC is the lowest concentration that inhibits growth of the organism. Consider `COc1ccc(C2CC(=O)c3c(O)cc(O[C@@H]4O[C@H](CO[C@@H]5O[C@@H](C)[C@H](O)[C@@H](O)[C@H]5O)[C@@H](O)[C@H](O)[C@H]4O)cc3O2)cc1O` (stereo partly shown) [HD, hesperetin 7-rutinoside], for which, in data set [3], the logP at 20 h was 2.13 ± 0.03. Moreover, in the data set on IL-6 in HaCaT cells, the “effect on IL-6 production (in words)” value is “Drastic effects were not observed”. Further, the “water solubility (in words)” value in data set [4] was “poorly soluble in water”. Besides, the half-maximal inhibitory concentration (IC50) in data set [1] was found to be 1409 ± 3.43 µM; in data set [2], 260.8 ± 2.55 µM. In the data set on Candida albicans, the minimum inhibitory concentration (MIC) amounted to 2000 µg/mL (≈ 3280 µM). Moreover, in the data set with TNF-α in HaCaT cells, the “effect on TNF-α production (in words)” value is “Drastic effects were not observed”. Further, the “NO levels (in words)” value in [5] was “reduced NO levels at higher concentrations”. The “concentration showing cytotoxic effects / cell death” value in the data set with HaCaT cells was 100~200 μM.
`COc1ccc(C2CC(=O)c3c(O)cc(O[C@@H]4O[C@H](CO[C@@H]5O[C@@H](C)[C@H](O)[C@@H](O)[C@H]5O)[C@@H](O[C@H]5O[C@H](CO)[C@@H](O)[C@H](O)[C@H]5O)[C@H](O)[C@H]4O)cc3O2)cc1O` (stereo partly shown) [HDG, hesperidin glucoside]: in data set [3], the logP at 20 h is -3.45. The “effect on IL-6 production (in words)” value in the data set with IL-6 in HaCaT cells is “Drastic effects were not observed”. In data set [4], the “water solubility (in words)” value is listed as “highly soluble in water”. Also, the half-maximal inhibitory concentration (IC50) in data set [1] is 1408 ± 3.73 µM. Besides, the MIC with Candida albicans (setting [6]) was determined as 2000 µg/mL (≈ 2590 µM). Further, the IC50 in [2] came to 267 ± 2.69 µM. The “effect on TNF-α production (in words)” value in the data set with TNF-α in HaCaT cells is on record as “Drastic effects were not observed”. In data set [5], the “NO levels (in words)” value is given as “reduced NO levels at higher concentrations”. Also, in the data set on HaCaT cells, the “concentration showing cytotoxic effects / cell death” value is greater than 200 µM and the “cytotoxicity (in words)” value is “much less cytotoxicity than the other compounds”.
`COc1ccc([C@@H]2CC(=O)c3c(O)cc(O)cc3O2)cc1O` [HT, hesperetin]: the logP at 20 h in data set [3] is 2.59. Further, the “water solubility (in words)” value in data set [4] is recorded as “hardly soluble in water”. The values for the MIC with Cutibacterium acnes, in the data set on Candida albicans (setting [6]) and against Staphylococcus aureus were 1000 µg/mL (≈ 3310 µM), 500 µg/mL (≈ 1650 µM) and 2000 µg/mL (≈ 6620 µM), respectively. In addition, the IC50 came out at 893.1 ± 1.67 µM in data set [1] and 110 ± 3.74 µM in data set [2]. In data set [5], the “NO production (in words)” value is “markedly decreased”. For the same compound, the “concentration showing cytotoxic effects / cell death” value in the data set with HaCaT cells is 100~200 μM.
On to `CCCCCCCCCCCC(=O)Oc1cc(O)c2c(c1)OC(c1ccc(OC)c(O)c1)CC2=O` (stereo not shown) [HTL, hesperetin laurate], for which the “Log Po/w (n-octanol–water partition coefficient)” value in data set [3] came out at 7.08 ± 0.06. In [3], the logP at 20 h is 7.28 ± 0.06. In addition, the “effect on IL-6 production (in words)” value with IL-6 in HaCaT cells was “highest reducing effect”. For the same compound, in [4], the “water solubility (in words)” value was “extremely insoluble in water”. Also, the minimum inhibitory concentration (MIC) against Cutibacterium acnes was 1000 µg/mL (≈ 2060 µM); against Malassezia furfur, 1000 µg/mL (≈ 2060 µM); in the data set on Candida albicans (setting [6]) it was 250 µg/mL (≈ 516 µM); against Staphylococcus aureus it was 2000 µg/mL (≈ 4130 µM). Besides, the IC50 in data set [1] was found to be 899.1 ± 2.52 µM; in data set [2], 105 ± 2.01 µM. In the data set on TNF-α in HaCaT cells, the “effect on TNF-α production (in words)” value is recorded as “highest reducing effect”. For the same compound, in data set [5], the “NO production (in words)” value is “markedly decreased”. In addition, the “cytotoxicity (in words)” value in the data set with HaCaT cells is “induced cell death at relatively low concentrations”.
